The values that follow come from BindingDB's records for doi:10.7270/Q2QC01XF (Nmmlsc, 2009).

The experiment concerns the target Ras-related protein Rab-2A (Canis lupus familiaris, UniProt P61105). The experiment is described as follows: Rab2 wildtype GTP-binding inhibitors, SAR follow-up, biochemical, additional analogs, bead-based flow cytometry, multiplex (AID 2046).

Structures are written as SMILES.

Chain of Ras-related protein Rab-2A (P61105 whole entry): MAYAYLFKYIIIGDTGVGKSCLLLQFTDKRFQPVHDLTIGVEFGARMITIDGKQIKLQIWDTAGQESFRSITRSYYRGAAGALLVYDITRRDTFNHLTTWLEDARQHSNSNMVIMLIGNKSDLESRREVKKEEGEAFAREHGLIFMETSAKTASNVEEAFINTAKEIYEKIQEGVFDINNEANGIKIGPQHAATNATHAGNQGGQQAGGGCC

In turn, `O=C1N=c2c(Br)cccc2=C1c1[nH]c2ccccc2c1NO` [7-bromanyl-3-[3-(oxidanylamino)-1H-indol-2-yl]indol-2-one] showed an inhibition constant (Ki) of 4.19 µM.
As for `O=C1N=c2ccc(Br)cc2=C1c1[nH]c2ccccc2c1NO` [5-bromanyl-3-[3-(oxidanylamino)-1H-indol-2-yl]indol-2-one], the affinity, expressed as Ki, was 4.15 µM. This Ki and that of the compound before are within 1.5-fold of each other.
